From ChEMBL document CHEMBL5291721, “A preclinical secondary pharmacology resource illuminates target-adverse drug reaction associations of marketed drugs” (Nat Commun, 2023)

Experiments:
[1] = biological target: T1, Gastrin/cholecystokinin type B receptor (Homo sapiens, UniProt P32239)
T1 sequence (P32239 whole entry): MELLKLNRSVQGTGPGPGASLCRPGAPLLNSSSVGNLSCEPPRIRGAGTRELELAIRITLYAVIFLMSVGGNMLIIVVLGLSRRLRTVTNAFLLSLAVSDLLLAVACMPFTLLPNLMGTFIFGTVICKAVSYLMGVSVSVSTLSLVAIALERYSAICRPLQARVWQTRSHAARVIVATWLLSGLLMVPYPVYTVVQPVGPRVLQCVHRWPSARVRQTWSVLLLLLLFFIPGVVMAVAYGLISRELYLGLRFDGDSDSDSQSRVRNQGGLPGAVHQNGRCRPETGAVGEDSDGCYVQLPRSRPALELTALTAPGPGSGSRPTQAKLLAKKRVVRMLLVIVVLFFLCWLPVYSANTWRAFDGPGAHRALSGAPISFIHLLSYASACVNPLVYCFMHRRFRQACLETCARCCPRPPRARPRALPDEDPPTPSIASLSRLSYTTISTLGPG

[2] = biological target: T2, Thromboxane A2 receptor (Homo sapiens, UniProt P21731)
T2 sequence (P21731 whole entry): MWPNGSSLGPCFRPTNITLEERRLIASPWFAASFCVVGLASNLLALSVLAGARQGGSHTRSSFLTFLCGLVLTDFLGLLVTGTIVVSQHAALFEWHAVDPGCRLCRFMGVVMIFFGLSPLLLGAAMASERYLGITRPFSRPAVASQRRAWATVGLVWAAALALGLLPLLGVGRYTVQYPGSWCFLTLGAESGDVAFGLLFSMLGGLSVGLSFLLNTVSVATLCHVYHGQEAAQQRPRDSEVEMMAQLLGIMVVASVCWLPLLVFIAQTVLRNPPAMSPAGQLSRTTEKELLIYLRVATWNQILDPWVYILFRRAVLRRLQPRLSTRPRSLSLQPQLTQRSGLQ

[3] = biological target: T3, Alpha-1A adrenergic receptor (Homo sapiens, UniProt P35348)
T3 sequence (P35348 whole entry): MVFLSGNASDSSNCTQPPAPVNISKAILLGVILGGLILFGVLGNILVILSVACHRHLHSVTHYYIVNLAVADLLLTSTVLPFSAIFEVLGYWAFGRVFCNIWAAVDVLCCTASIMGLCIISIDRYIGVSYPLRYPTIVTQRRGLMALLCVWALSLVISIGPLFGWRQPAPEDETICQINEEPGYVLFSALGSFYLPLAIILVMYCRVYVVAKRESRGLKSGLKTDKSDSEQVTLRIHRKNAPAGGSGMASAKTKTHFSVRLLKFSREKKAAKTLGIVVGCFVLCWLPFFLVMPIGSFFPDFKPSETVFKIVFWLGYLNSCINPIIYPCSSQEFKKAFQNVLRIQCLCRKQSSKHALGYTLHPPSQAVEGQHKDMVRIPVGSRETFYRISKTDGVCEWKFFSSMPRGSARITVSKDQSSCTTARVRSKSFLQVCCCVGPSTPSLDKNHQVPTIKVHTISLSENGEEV

[4] = biological target: Vasopressin V1a receptor (Homo sapiens, UniProt P37288)
Vasopressin V1a receptor, sequence (P37288 whole entry): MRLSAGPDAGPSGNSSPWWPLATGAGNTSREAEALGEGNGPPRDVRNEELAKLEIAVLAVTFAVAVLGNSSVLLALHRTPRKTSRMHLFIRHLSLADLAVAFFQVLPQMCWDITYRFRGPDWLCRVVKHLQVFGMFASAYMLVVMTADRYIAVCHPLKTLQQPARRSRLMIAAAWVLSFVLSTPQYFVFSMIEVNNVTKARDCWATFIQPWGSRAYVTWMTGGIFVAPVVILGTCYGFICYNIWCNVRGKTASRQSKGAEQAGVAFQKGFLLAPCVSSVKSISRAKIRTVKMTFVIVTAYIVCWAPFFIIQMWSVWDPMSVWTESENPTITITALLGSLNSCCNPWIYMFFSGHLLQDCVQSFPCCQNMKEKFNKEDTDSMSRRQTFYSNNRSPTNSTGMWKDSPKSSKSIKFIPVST

[5] = biological target: T4, Cannabinoid receptor 1 (Homo sapiens, UniProt P21554); format: functional, cell-based
T4 sequence (P21554 whole entry): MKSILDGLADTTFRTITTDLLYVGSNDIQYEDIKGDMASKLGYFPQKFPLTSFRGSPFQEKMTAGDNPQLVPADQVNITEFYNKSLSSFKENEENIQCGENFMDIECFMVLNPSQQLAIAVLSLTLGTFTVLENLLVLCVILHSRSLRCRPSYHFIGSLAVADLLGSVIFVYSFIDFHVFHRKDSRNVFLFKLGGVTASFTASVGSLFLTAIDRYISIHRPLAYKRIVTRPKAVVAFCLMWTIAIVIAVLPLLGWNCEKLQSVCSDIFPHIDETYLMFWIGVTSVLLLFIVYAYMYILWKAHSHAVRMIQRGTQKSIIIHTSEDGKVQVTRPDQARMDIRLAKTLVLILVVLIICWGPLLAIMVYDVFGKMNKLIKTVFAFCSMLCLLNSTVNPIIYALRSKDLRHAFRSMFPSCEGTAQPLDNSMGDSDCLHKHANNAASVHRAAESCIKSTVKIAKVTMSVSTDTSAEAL

[6] = biological target: T4, Cannabinoid receptor 1; format: functional, cell-based; remark: listed apart in the source
[7] = biological target: Prostaglandin G/H synthase 1 (Homo sapiens, UniProt P23219); format: functional
Prostaglandin G/H synthase 1, sequence (P23219 whole entry): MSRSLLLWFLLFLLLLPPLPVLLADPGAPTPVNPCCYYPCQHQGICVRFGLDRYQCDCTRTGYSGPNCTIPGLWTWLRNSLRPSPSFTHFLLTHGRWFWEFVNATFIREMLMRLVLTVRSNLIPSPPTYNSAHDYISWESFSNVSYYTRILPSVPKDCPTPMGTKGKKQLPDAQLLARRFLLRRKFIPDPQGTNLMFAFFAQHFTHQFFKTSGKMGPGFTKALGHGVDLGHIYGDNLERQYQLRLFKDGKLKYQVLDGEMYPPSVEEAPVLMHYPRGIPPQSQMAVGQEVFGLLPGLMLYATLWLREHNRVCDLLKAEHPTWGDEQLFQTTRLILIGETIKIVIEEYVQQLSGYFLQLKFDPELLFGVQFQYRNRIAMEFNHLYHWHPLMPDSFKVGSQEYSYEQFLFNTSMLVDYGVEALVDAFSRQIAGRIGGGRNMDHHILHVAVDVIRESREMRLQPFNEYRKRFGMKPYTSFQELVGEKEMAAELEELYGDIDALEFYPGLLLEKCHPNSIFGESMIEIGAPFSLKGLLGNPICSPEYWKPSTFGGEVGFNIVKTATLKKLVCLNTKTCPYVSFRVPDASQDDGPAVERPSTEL
Note: assay procedure not described here.

| Compound | AC50 [1] | AC50 [2] | AC50 [3] | AC50 [4] | AC50 [5] | AC50 [6] | AC50 [7] |
| --- | --- | --- | --- | --- | --- | --- | --- |
| C[N+]1(C)CCC(=C(c2ccccc2)c2ccccc2)CC1 | > 30 µM | > 30 µM | > 10 µM | > 30 µM |  |  |  |
| CN(C)Cc1nnc2n1-c1ccc(Cl)cc1C(c1ccccc1)=NC2 [ADINAZOLAM] |  | > 10 µM | > 10 µM | > 10 µM |  |  |  |
| Cc1ccccc1-n1c(CF)nc2ccc(N)cc2c1=O [AFLOQUALONE] | > 30 µM | > 30 µM | > 30 µM | > 30 µM |  |  |  |
| CC1=C(C(=O)OC(C)C)C(c2cccc([N+](=O)[O-])c2)C(C(=O)OC2CN(C(c3ccccc3)c3ccccc3)C2)=C(N)N1 (configuration not stated) [AZELNIDIPINE] | > 30 µM | > 30 µM |  | > 30 µM | > 30 µM | > 30 µM |  |
| CCOC(=O)c1ccc(N)cc1 [BENZOCAINE] |  | > 10 µM | > 10 µM |  |  |  |  |
| CC(C)(Oc1ccc(CCNC(=O)c2ccc(Cl)cc2)cc1)C(=O)O [BEZAFIBRATE] |  | > 10 µM | > 10 µM | > 10 µM | > 30 µM | > 30 µM |  |
| C=C1CC[C@H](O)C/C1=C/C=C1\CCC[C@]2(C)[C@@H]([C@H](C)CCCC(C)C)CC[C@@H]12 [CHOLECALCIFEROL] |  |  |  |  |  |  | 22.9 µM |
| C/C=C(/C(=C/C)c1ccc(O)cc1)c1ccc(O)cc1 [DIENESTROL] |  | > 10 µM | > 10 µM | > 10 µM |  |  |  |
| CN[C@]1(c2ccccc2Cl)CCCCC1=O [ESKETAMINE] | > 30 µM | > 30 µM |  | > 30 µM |  |  |  |
| CC(O)(P(=O)(O)O)P(=O)(O)O [ETIDRONIC ACID] |  |  |  |  |  |  | > 30 µM |
| COc1ccc([C@@H]2CC(=O)c3c(O)cc(O)cc3O2)cc1O [HESPERETIN] |  | > 10 µM | > 30 µM | > 10 µM |  |  |  |
| CCOC(=O)C1=C(C)NC(C)=C(C(=O)OCC)C1c1ccccc1/C=C/C(=O)OC(C)(C)C [LACIDIPINE] | > 30 µM | > 30 µM |  |  | > 30 µM | > 30 µM |  |
| C=C1c2cccc(O)c2C(=O)C2=C(O)[C@]3(O)C(=O)C(C(N)=O)=C(O)[C@@H](N(C)C)[C@@H]3[C@@H](O)[C@H]12 [METHACYCLINE] | > 30 µM | > 30 µM | > 10 µM | > 30 µM |  |  |  |
| Cc1ccccc1N1C(=O)c2cc(S(N)(=O)=O)c(Cl)cc2NC1C (configuration not stated) [METOLAZONE] |  | > 10 µM | > 10 µM |  |  |  |  |
| O=C(O)c1cccnc1Nc1cccc(C(F)(F)F)c1 [NIFLUMIC ACID] |  | > 10 µM | > 10 µM |  |  |  |  |
| O=C1c2cccc3c2[C@H](CCC3)CN1[C@@H]1CN2CCC1CC2 [PALONOSETRON] | > 30 µM | > 30 µM |  | > 30 µM |  |  |  |
| NNCCc1ccccc1 [PHENELZINE] |  |  |  |  |  |  | 0.891 µM |
| O=C1c2ccccc2C(=O)C1c1ccccc1 [PHENINDIONE] |  | > 10 µM | > 10 µM | > 10 µM | > 30 µM | > 30 µM |  |
| Cc1cccc(C)c1NC(=O)CC12CCCN1CCC2 [PILSICAINIDE] | > 30 µM | > 30 µM |  | > 30 µM | > 30 µM | > 30 µM |  |
| CN[C@@H](C)[C@@H](O)c1ccccc1 [PSEUDOEPHEDRINE] | > 30 µM | > 30 µM | > 10 µM | > 10 µM |  |  |  |
| COC(=O)[C@H]1[C@H]2C[C@@H]3c4[nH]c5cc(OC)ccc5c4CCN3C[C@H]2C[C@@H](OC(=O)c2cc(OC)c(OC)c(OC)c2)[C@@H]1OC [RESERPINE] |  | > 10 µM |  | > 10 µM |  |  | > 10 µM |
| C[C@]12CCC(=O)C[C@@H]1CC[C@@H]1[C@@H]2CC[C@]2(C)[C@@H](O)CC[C@@H]12 [STANOLONE] | > 30 µM | > 30 µM | > 30 µM |  |  |  |  |
| Cc1ccc(C(=O)C(C)CN2CCCCC2)cc1 (configuration not stated) [TOLPERISONE] |  |  |  |  |  |  | > 30 µM |
| COc1ccc2c(C(=S)N(C)CC(=O)O)cccc2c1C(F)(F)F [TOLRESTAT] |  |  |  |  |  |  | > 30 µM |
| CCOC(=O)c1c(CSc2ccccc2)n(C)c2cc(Br)c(O)c(CN(C)C)c12 [UMIFENOVIR] | > 30 µM | > 30 µM |  | > 30 µM | > 30 µM | > 30 µM |  |
